In ChEMBL document CHEMBL1268874, “A concise, total synthesis and antibacterial evaluation of 2-hydroxy-1-(1H-indol-3-yl)-4-methylpentan-3-one” (2010):
Values after ≈ are worked out from the molar mass of the structure shown.

Columns and labels:
Assay type in all cases: functional
Escherichia coli [1] = assay: Antibacterial activity against Escherichia coli 700 expressing TolC after 16 to 20 hrs by broth microdilution method
Bacillus subtilis = assay: Antibacterial activity against Bacillus subtilis BD54 after 16 to 20 hrs by broth microdilution method
Staphylococcus aureus [2] = assay: Antibacterial activity against Staphylococcus aureus ATCC 25923 after 16 to 20 hrs by broth microdilution method
Pseudomonas aeruginosa [3] = assay: Antibacterial activity against Pseudomonas aeruginosa PAO1 after 16 to 20 hrs by broth microdilution method
Bacillus anthracis = assay: Antibacterial activity against Bacillus anthracis Sterne after 16 to 20 hrs by broth microdilution method
[4] = tested on: Stenotrophomonas maltophilia; assay: Antibacterial activity against Stenotrophomonas maltophilia ATCC 13637 after 16 to 20 hrs by broth microdilution method
Acinetobacter baumannii = assay: Antibacterial activity against Acinetobacter baumannii ATCC 19606 after 16 to 20 hrs by broth microdilution method; conditions: ATCC 19606 = CIP 70.34 = JCM 6841
Burkholderia cepacia [5] = assay: Antibacterial activity against Burkholderia cepacia 39277 after 16 to 20 hrs by broth microdilution method
Escherichia coli [6] = assay: Antibacterial activity against TolC deficient Escherichia coli 701 after 16 to 20 hrs by broth microdilution method
Enterococcus faecalis [7] = assay: Antibacterial activity against vancomycin-resistant Enterococcus faecalis ATCC 51575 after 16 to 20 hrs by broth microdilution method
Klebsiella pneumoniae [8] = assay: Antibacterial activity against Klebsiella pneumoniae 700603 after 16 to 20 hrs by broth microdilution method
Klebsiella pneumoniae [9] = assay: Antibacterial activity against Klebsiella pneumoniae 13882 after 16 to 20 hrs by broth microdilution method
Staphylococcus aureus [10] = assay: Antibacterial activity against methicillin-resistant Staphylococcus aureus 1094 after 16 to 20 hrs by broth microdilution method
Enterococcus faecalis [11] = assay: Antibacterial activity against Enterococcus faecalis ATCC 29212 after 16 to 20 hrs by broth microdilution method
Burkholderia cepacia [12] = assay: Antibacterial activity against Burkholderia cepacia 55792 after 16 to 20 hrs by broth microdilution method
Pseudomonas aeruginosa [13] = assay: Antibacterial activity against DmexAB-oprM deletion mutant of Pseudomonas aeruginosa PAO1 after 16 to 20 hrs by broth microdilution method
[14] = Bacillus subtilis, BD54, read-out: MIC

CC(=O)OC(C(=O)Cc1c[nH]c2ccccc12)C(C)C (centres undefined)
MIC (Escherichia coli [1]): > 80 µg/mL | MIC (Bacillus subtilis; [14]): > 80 µg/mL | MIC (Staphylococcus aureus [2]): > 80 µg/mL | MIC (Pseudomonas aeruginosa [3]): > 80 µg/mL | MIC (Bacillus anthracis): > 80 µg/mL | MIC [4]: > 80 µg/mL | MIC (Acinetobacter baumannii): > 80 µg/mL | MIC (Burkholderia cepacia [5]): > 80 µg/mL | MIC (Escherichia coli [6]): > 80 µg/mL | MIC (Enterococcus faecalis [7]): > 80 µg/mL | MIC (Klebsiella pneumoniae [8]): > 80 µg/mL | MIC (Klebsiella pneumoniae [9]): > 80 µg/mL | MIC (Staphylococcus aureus [10]): > 80 µg/mL | MIC (Enterococcus faecalis [11]): > 80 µg/mL | MIC (Burkholderia cepacia [12]): > 80 µg/mL

CC(=O)OC(Cc1c[nH]c2ccccc12)C(=O)C(C)C (centres undefined)
MIC (Escherichia coli [1]): > 80 µg/mL | MIC (Bacillus subtilis; [14]): > 80 µg/mL | MIC (Staphylococcus aureus [2]): > 90 µg/mL | MIC (Pseudomonas aeruginosa [3]): > 80 µg/mL | MIC (Bacillus anthracis): > 80 µg/mL | MIC [4]: > 80 µg/mL | MIC (Acinetobacter baumannii): > 80 µg/mL | MIC (Burkholderia cepacia [5]): > 80 µg/mL | MIC (Escherichia coli [6]): > 80 µg/mL | MIC (Enterococcus faecalis [7]): > 80 µg/mL | MIC (Klebsiella pneumoniae [8]): > 80 µg/mL | MIC (Klebsiella pneumoniae [9]): > 80 µg/mL | MIC (Staphylococcus aureus [10]): > 80 µg/mL | MIC (Enterococcus faecalis [11]): > 80 µg/mL | MIC (Burkholderia cepacia [12]): > 80 µg/mL

CC(C)C(O)C(=O)Cc1c[nH]c2ccccc12 (single isomer, unassigned; (+))
MIC (Bacillus subtilis): >40 µg/mL | MIC (Burkholderia cepacia [5]): > 80 µg/mL | MIC (Enterococcus faecalis [7]): > 80 µg/mL | MIC (Enterococcus faecalis [11]): > 80 µg/mL | MIC (Burkholderia cepacia [12]): > 80 µg/mL

CC(C)C(=O)C(O)Cc1c[nH]c2ccccc12 (single isomer, unassigned; (+))
MIC (Escherichia coli [1]): > 80 µg/mL | MIC (Bacillus subtilis; [14]): > 80 µg/mL | MIC (Staphylococcus aureus [2]): > 80 µg/mL | MIC (Pseudomonas aeruginosa [3]): > 80 µg/mL | MIC (Bacillus anthracis): > 80 µg/mL | MIC [4]: > 80 µg/mL | MIC (Acinetobacter baumannii): > 80 µg/mL | MIC (Burkholderia cepacia [5]): > 80 µg/mL | MIC (Escherichia coli [6]): > 80 µg/mL | MIC (Enterococcus faecalis [7]): > 80 µg/mL | MIC (Klebsiella pneumoniae [8]): > 80 µg/mL | MIC (Klebsiella pneumoniae [9]): > 80 µg/mL | MIC (Staphylococcus aureus [10]): > 80 µg/mL | MIC (Enterococcus faecalis [11]): > 80 µg/mL | MIC (Burkholderia cepacia [12]): > 80 µg/mL

CC(C)C(O)C(=O)Cc1c[nH]c2ccccc12 (single isomer, unassigned; (-))
MIC (Escherichia coli [1]): > 80 µg/mL | MIC (Bacillus subtilis; [14]): > 80 µg/mL | MIC (Staphylococcus aureus [2]): > 80 µg/mL | MIC (Pseudomonas aeruginosa [3]): > 80 µg/mL | MIC (Bacillus anthracis): > 80 µg/mL | MIC [4]: > 80 µg/mL | MIC (Acinetobacter baumannii): > 80 µg/mL | MIC (Escherichia coli [6]): > 80 µg/mL | MIC (Klebsiella pneumoniae [8]): > 80 µg/mL | MIC (Klebsiella pneumoniae [9]): > 80 µg/mL | MIC (Staphylococcus aureus [10]): > 80 µg/mL

O=C(O)c1cn(C2CC2)c2cc(N3CCNCC3)c(F)cc2c1=O [CIPROFLOXACIN]
MIC (Bacillus subtilis; [14]): 0.078 µg/mL (≈ 0.235 µM) | MIC (Staphylococcus aureus [2]): 469 µg/mL (≈ 1420 µM) | MIC (Pseudomonas aeruginosa [3]): 0.313 µg/mL (≈ 0.945 µM) | MIC [4]: 0.313 µg/mL (≈ 0.945 µM) | MIC (Acinetobacter baumannii): 1.25 µg/mL (≈ 3.77 µM) | MIC (Pseudomonas aeruginosa [13]): 20 µg/mL (≈ 60.4 µM) | MIC (Burkholderia cepacia [5]): 0.078 µg/mL (≈ 0.235 µM) | MIC (Enterococcus faecalis [7]): 0.625 µg/mL (≈ 1.89 µM) | MIC (Klebsiella pneumoniae [8]): 0.313 µg/mL (≈ 0.945 µM) | MIC (Klebsiella pneumoniae [9]): 0.078 µg/mL (≈ 0.235 µM) | MIC (Staphylococcus aureus [10]): 20 µg/mL (≈ 60.4 µM) | MIC (Enterococcus faecalis [11]): 1.9 µg/mL (≈ 5.73 µM) | MIC (Burkholderia cepacia [12]): 0.039 µg/mL (≈ 0.118 µM)
